Test results reported in ChEMBL document CHEMBL1201862, “PubChem BioAssay data set” (2004).
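All cell lines were grown in 96-well plates and treated with compound for 48 hours. The concentration for 50% growth inhibition is given as GI50.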 Activity calls are given as the source filed them. No stated cut-off is given here; in the data, active = GI50 up to about 1.1 µM and inactive = higher.

How the values were obtained:
Assay in all cases: NCI-60 cell line screen, 48 h
U-251 = tested on: U-251
NCI-H522 = tested on: NCI-H522
EKVX = tested on: EKVX
OVCAR-5 = tested on: OVCAR-5
SF-539 = tested on: SF-539
COLO 205 = tested on: COLO 205
UACC-62 = tested on: UACC-62
DLD-1 = tested on: DLD-1
SK-MEL-2 = tested on: SK-MEL-2
SF-295 = tested on: SF-295
SNB-19 = tested on: SNB-19
UACC-257 = tested on: UACC-257
SK-MEL-5 = tested on: SK-MEL-5
KM12 = tested on: KM12
A549 = tested on: A549
HT-29 = tested on: HT-29
A498 = tested on: A498
RPMI-8226 = tested on: RPMI-8226
M14 = tested on: M14
KM-20L2 = tested on: KM-20L2
HCT-15 = tested on: HCT-15
HOP-18 = tested on: HOP-18
HCC 2998 = tested on: HCC 2998
SK-MEL-28 = tested on: SK-MEL-28
OVCAR-8 = tested on: OVCAR-8
LXFL 529 = tested on: LXFL 529
CCRF-CEM = tested on: CCRF-CEM
SK-OV-3 = tested on: SK-OV-3
DMS-273 = tested on: DMS-273
HCT-116 = tested on: HCT-116
SW-620 = tested on: SW-620
Malme-3M = tested on: Malme-3M
SNB-78 = tested on: SNB-78
HOP-62 = tested on: HOP-62
SNB-75 = tested on: SNB-75
LOX IMVI = tested on: LOX IMVI
DMS-114 = tested on: DMS-114
XF498 = tested on: XF498
IGROV-1 = tested on: IGROV-1
RXF 393 = tested on: RXF 393
SN12C = tested on: SN12C
M19-MEL = tested on: M19-MEL
NCI-H460 = tested on: NCI-H460
NCI-H23 = tested on: NCI-H23
OVCAR-3 = tested on: OVCAR-3
ACHN = tested on: ACHN
K562 = tested on: K562
SR = tested on: SR
786-0 = tested on: 786-0
MOLT-4 = tested on: MOLT-4
NCI-H226 = tested on: NCI-H226
UO-31 = tested on: UO-31
HL-60 = tested on: HL-60
TK-10 = tested on: TK-10

Structure (SMILES): C[P+]1(Cc2ccccc2)CCCC1
- GI50 (U-251): > 100 µM (inactive)
- GI50 (NCI-H522): > 100 µM (inactive)
- GI50 (EKVX): > 100 µM (inactive)
- GI50 (OVCAR-5): > 100 µM (inactive)
- GI50 (SF-539): > 100 µM (inactive)
- GI50 (COLO 205): > 100 µM (inactive)
- GI50 (UACC-62): > 100 µM (inactive)
- GI50 (DLD-1): > 100 µM (inactive)
- GI50 (SK-MEL-2): > 100 µM (inactive)
- GI50 (SF-295): > 100 µM (inactive)
- GI50 (SNB-19): > 100 µM (inactive)
- GI50 (UACC-257): > 100 µM (inactive)
- GI50 (SK-MEL-5): > 100 µM (inactive)
- GI50 (KM12): > 100 µM (inactive)
- GI50 (A549): > 100 µM (inactive)
- GI50 (HT-29): > 100 µM (inactive)
- GI50 (A498): > 100 µM (inactive)
- GI50 (RPMI-8226): > 100 µM (inactive)
- GI50 (M14): > 100 µM (inactive)
- GI50 (KM-20L2): > 100 µM (inactive)
- GI50 (HCT-15): > 100 µM
- GI50 (HOP-18): 63.7 µM (inactive)
- GI50 (HCC 2998): 71.1 µM (inactive)
- GI50 (SK-MEL-28): > 100 µM (inactive)
- GI50 (OVCAR-8): > 100 µM (inactive)
- GI50 (LXFL 529): > 100 µM (inactive)
- GI50 (CCRF-CEM): > 100 µM (inactive)
- GI50 (SK-OV-3): > 100 µM (inactive)
- GI50 (DMS-273): > 100 µM (inactive)
- GI50 (HCT-116): > 100 µM (inactive)
- GI50 (SW-620): > 100 µM (inactive)
- GI50 (Malme-3M): 62.8 µM (inactive)
- GI50 (SNB-78): > 100 µM (inactive)
- GI50 (HOP-62): > 100 µM (inactive)
- GI50 (SNB-75): > 100 µM (inactive)
- GI50 (LOX IMVI): > 100 µM (inactive)
- GI50 (DMS-114): > 100 µM (inactive)
- GI50 (XF498): < 0.01 µM (active)
- GI50 (IGROV-1): > 100 µM (inactive)
- GI50 (RXF 393): > 100 µM (inactive)
- GI50 (SN12C): > 100 µM (inactive)
- GI50 (M19-MEL): > 100 µM (inactive)
- GI50 (NCI-H460): > 100 µM (inactive)
- GI50 (NCI-H23): > 100 µM (inactive)
- GI50 (OVCAR-3): > 100 µM (inactive)
- GI50 (ACHN): > 100 µM (inactive)
- GI50 (K562): > 100 µM (inactive)
- GI50 (SR): > 100 µM (inactive)
- GI50 (786-0): > 100 µM (inactive)
- GI50 (MOLT-4): > 100 µM (inactive)
- GI50 (NCI-H226): > 100 µM (inactive)
- GI50 (UO-31): > 100 µM (inactive)
- GI50 (HL-60): > 100 µM (inactive)
- GI50 (TK-10): > 100 µM (inactive)
